The values below come from patent publication US9365556B2, “3,5-diaminopyrazole kinase inhibitors” (Axikin Pharmaceuticals, Inc., priority 2012, dated 2016).

Where only a bound is given, the exact number is not on record here.

Data set [1] has as its target T1, kinase domain protein of RC kinase (Homo sapiens, UniProt Q56UN5).
T1 sequence (Q56UN5 1061-1324 limits assumed): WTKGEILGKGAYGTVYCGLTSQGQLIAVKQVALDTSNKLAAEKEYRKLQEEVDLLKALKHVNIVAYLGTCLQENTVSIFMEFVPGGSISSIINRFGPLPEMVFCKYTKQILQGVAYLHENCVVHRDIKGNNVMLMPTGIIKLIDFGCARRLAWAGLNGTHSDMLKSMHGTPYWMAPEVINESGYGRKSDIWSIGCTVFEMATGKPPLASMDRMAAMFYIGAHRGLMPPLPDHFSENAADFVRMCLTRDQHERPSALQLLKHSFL
Put plainly: Enzymatic assay for kinase inhibitory activity (Crebtide substrate, LANCE read-out). The class given is biochemical. The following applies: compound at 1 μM. As to the method: Solutions of a test compound, Crebtide (a substrate), a kinase, and ATP were prepared using 1×MAPK Buffer (50 mM HEPES, 1 mM EGTA, […], 10 mM MgCl2, 2 mM DTT, and 0.01% Tween 20).
To each well, the test compound (1 μL) was first added (in duplicate) to reach a final concentration of 1 μM or 1×IC50 of the compound. The kinase (5 μl) was then added to each well to reach a final concentration of […] for the kinase domain or […] for the full-length domain. Each plate included a positive and negative controls in duplicate wells. Crebtide (2.5 μL) was then added to each well in duplicate to reach a final concentration of 50 nM. If the full-length kinase was used, the plates were incubated for 45 min at room temperature before proceeding further. ATP (2.5 μL) was added to each well to reach a final concentration of 1 μM for the kinase domain and 3 μM for the full-length.
After the addition of ATP, the plates were incubated for 45 min at room temperature. During the incubation, an EDTA solution (40 mM) and anti-Crebtide ([…]) were prepared. Additionally, a detection buffer stock solution was diluted ten fold before use.
After the incubation, the anti-Crebtide (5 μL) and EDTA (5 μL) were added to each well to reach their final concentrations of […] and 10 mM, respectively. The plates were allowed to develop at room temperature for 45 min. The plates were then read at 665 nm and 615 nm using Perkin Elmer Lance machine.
The biological results of inhibition of the kinase domain protein of RC kinase are summarized in Tables 2 and 3, wherein A represents at least 50% inhibition of the RC kinase activity at 1 μM; B represents no greater than 50% but at least 20% inhibition of the RC kinase activity at 1 μM; C represents no greater than 20% but at least 5% inhibition of the RC kinase activity at 1 μM; and D represents no greater than 5% inhibition of the RC kinase activity at 1 μM.
For orientation: Time-resolved FRET reads energy transfer from a long-lived donor to a nearby acceptor.

In the case of `N#Cc1c(Nc2cccc(Cl)c2)n[nH]c1/N=C/c1c[nH]nc1-c1ccc(F)cc1` [Compound A1], the melting point – broadly, the temperature of the solid-liquid transition – was 127 to 132 °C. In data set [1], the inhibition (commonly the drop in the measured response relative to a control, in per cent) at 1 µM is at most 5%.

Molecule `N#Cc1c(Nc2cccc(Cl)c2)n[nH]c1/N=C/c1ccc(Cl)cc1Cl` [Compound A4] gave a melting point of 277 to 281 °C. Besides, the inhibition at 1 µM in data set [1] is at most 5%.

Molecule `N#Cc1c(Nc2cccc(Cl)c2)n[nH]c1N=Cc1ccc(O)c([N+](=O)[O-])c1` [Compound A5, 3-((3-chlorophenyl)amino)-5-((4-hydroxy-3-nitrobenzylidene)amino)-1H-pyrazole-4-carbonitrile] displayed a melting point of 286 to 288 °C. The inhibition at 1 µM in data set [1] lay within 20 to 50%.

Molecule `N#Cc1c(Nc2ccccc2)n[nH]c1/N=C/c1ccc(Cl)cc1` [Compound A7] registered a melting point of 276 to 278 °C. For the same molecule, the inhibition at 1 µM in data set [1] lay within 5 to 20%.

On to `N#Cc1c(Nc2ccccc2)n[nH]c1/N=C/c1cccc2ccccc12` [Compound A8], for which the melting point lay within 259 to 263 °C. In data set [1], the inhibition at 1 µM lay within 5 to 20%.

In the case of `N#Cc1c(Nc2ccccc2)n[nH]c1/N=C/c1ccccc1` [Compound A9], the melting point fell in the range of 257 to 260 °C. Also, the inhibition at 1 µM in data set [1] fell in the range of 20 to 50%.

The molecule `N#Cc1c(Nc2ccccc2)n[nH]c1/N=C/c1ccc(O)c([N+](=O)[O-])c1` [Compound A10] gave a melting point of 284 to 286 °C. Also, the inhibition at 1 µM in data set [1] fell in the range of 5 to 20%.

Molecule `N#Cc1c(Nc2cccc(Cl)c2)n[nH]c1/N=C/c1ccccc1` [Compound A11] came in with a melting point of 260 to 264 °C. In addition, the inhibition at 1 µM in data set [1] is 5 to 20%.

`N#Cc1c(Nc2cccc(Cl)c2)n[nH]c1/N=C/c1ccc(Cl)cc1` [Compound A12] yielded a melting point of 283 to 286 °C. For the same molecule, the inhibition at 1 µM in data set [1] is 20 to 50%.

`COc1ccc(/C=N/c2[nH]nc(Nc3cccc(Cl)c3)c2C#N)cc1` [Compound A13] displayed a melting point of 263 to 266 °C. Further, in data set [1], the inhibition at 1 µM fell in the range of 5 to 20%.

Take `NC(=O)c1c(Nc2cccc(Cl)c2)n[nH]c1/N=C/c1cccc(OCCO)c1` [Compound B104, 3-((3-chlorophenyl)amino)-5-((3-(2-hydroxyethoxy)benzylidene)amino)-1H-pyrazole-4-carboxamide]: the inhibition at 1 µM in data set [1] lay in the range of 20 to 50%.

Take `NC(=O)c1c(Nc2cccc(Cl)c2)n[nH]c1/N=C/c1cccnc1Cl` [Compound B105]: the “Activity (inhibition of the RC kinase activity)” value in data set [1] is recorded as “C (no greater than 20% but at least 5% inhibition of the RC kinase activity at 1 μM)”.

Consider `Cc1ccc(/C=N/c2[nH]nc(Nc3cccc(Cl)c3)c2C(N)=O)c(O)c1` [Compound B106], for which, in data set [1], the inhibition at 1 µM is at most 5%.

With `NC(=O)c1c(Nc2cccc(Cl)c2)n[nH]c1/N=C/c1ccc(OCc2ccc(F)cc2)cc1` [Compound B107], in data set [1], the inhibition at 1 µM is at most 5%.

For `COc1cc(O)cc(OC)c1/C=N/c1[nH]nc(Nc2cccc(Cl)c2)c1C(N)=O` [Compound B108], the “Activity (inhibition of the RC kinase activity)” value in data set [1] was “B (no greater than 50% but at least 20% inhibition of the RC kinase activity at 1 μM)”.

In the case of `NC(=O)c1c(Nc2cccc(Cl)c2)n[nH]c1/N=C/c1ccc(OCCO)cc1` [Compound B109], in data set [1], the inhibition at 1 µM lay within 5 to 20%.

For the molecule `NC(=O)c1c(Nc2cccc(Cl)c2)n[nH]c1/N=C/c1cc[nH]c1` [Compound B111], the inhibition at 1 µM in data set [1] is at least 50%.

With `NC(=O)c1c(Nc2ccccc2Cl)n[nH]c1/N=C/c1ccccc1` [Compound B115], in data set [1], the “Activity (inhibition of the RC kinase activity)” value is given as “B (no greater than 50% but at least 20% inhibition of the RC kinase activity at 1 μM)”.

Consider `NC(=O)c1c(Nc2ccccc2Cl)n[nH]c1/N=C/c1cc(O)ccc1[N+](=O)[O-]` [Compound B116], for which, in data set [1], the “Activity (inhibition of the RC kinase activity)” value is “C (no greater than 20% but at least 5% inhibition of the RC kinase activity at 1 μM)”.

As for `NC(=O)c1c(Nc2cccc(Cl)c2)n[nH]c1/N=C/c1ccc(Oc2ncccn2)cc1` [Compound B123], the “Activity (inhibition of the RC kinase activity)” value in data set [1] (1 µM) was “B (no greater than 50% but at least 20% inhibition of the RC kinase activity at 1 μM)”.
